Measured values from paper PMC12059629, “N-Terminal domain homologs of the orange carotenoid protein increase quenching of cyanobacterial phycobilisomes” (Plant Physiology, 2024).

Molecular target: T1, HCP4 (AnHCP4, holo-HCP4) (Nostoc sp. PCC 7120 = FACHB-418, UniProt Q8YMJ2)
T1 construct: gene all4941; C-terminal His-tag (pCDF-all4941-Ctag), expressed in E. coli BL21(DE3) with pAC-CANthipi; holo separated from apo on MonoQ
T1 sequence (Q8YMJ2 1-171): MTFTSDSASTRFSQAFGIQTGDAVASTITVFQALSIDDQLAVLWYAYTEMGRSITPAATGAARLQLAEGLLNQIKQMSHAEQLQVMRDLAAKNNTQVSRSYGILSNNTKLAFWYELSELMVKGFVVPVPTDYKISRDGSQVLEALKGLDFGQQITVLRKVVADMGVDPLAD
Assay: holoprotein purified from carotenoid-producing E. coli; separated from apoprotein by anion exchange; absorbance at […] nm
Format: binding
Details: 50 mM Tris pH 8; 1:1 HCP4:CAN ratio used for quantification

**Q.** With `CC1=C(/C=C/C(C)=C/C=C/C(C)=C/C=C/C=C(C)/C=C/C=C(C)/C=C/C2=C(C)C(=O)CCC2(C)C)C(C)(C)CCC1=O` [canthaxanthin] as the compound, how does the “holoprotein purified from carotenoid-producing E. coli; separated from apoprotei” value read?
**A.** Its value is “For HCP4, the holoprotein was eluted in the flow through and column wash”.
